Literature values as cited in patent US20090117079A1, “METHODS AND MATERIALS FOR TREATING OR PREVENTING DISEASES/DISORDERS MEDIATED BY ALCOHOL DEHYDROGENASE” (priority 2007, published 2009).

System: alcohol dehydrogenase (ADH I)
Conditions: competitive inhibition of ADH I in humans; affinity of ethanol relative to methanol

Question: Which ethanol/methanol affinity ratio does the source give for CCO [ethanol] here?
Answer: 10/1
